Results: patent US11672786B2, “Methods of treating diseases associated with repeat instability” (The Hospital for Sick Children, priority 2016, dated 2023)

Test system: HPRT1 exons 2 and 3, HD primary fibroblast cell line GM09197
Experiment: HPRT1 sequence analysis by SMRT-CCS sequencing (general mutagen test)
Format: cell-based, human
From the text: Towards assessing whether NA-treatment acted as a general mutagen to sequences other than CAG slip-outs, the high read accuracy and depth of single molecule, real time, circular consensus sequencing (SMRT-CCS) was harnessed. Single-molecule sequencing was done on the HPRT1 gene—widely used as a surrogate indicator of the global effect of induced genetic variation. Single-molecule sequencing can detect mutations at frequencies below 0.5% with no false positives. Panel A of FIG. 13 is a schematic of HPRT1 sequencing for mutation detection. Briefly, cells were grown under identical conditions differing only by the addition of NA (50 μM) or saline, DNAs were isolated, HPRT1 exons 2 and 3 PCR amplified and sequenced. Panel B of FIG. 13 are graphs showing the comparison of sequence variations between NA-treated and saline-treated samples. We chose to compare the single-molecule sequence reads of individual X chromosome-linked HPRT1 alleles (exons 2 and 3, 2,897 nucleotides) from the HD patient-derived cells that had been NA- or saline-treated. In this manner, each read would represent a single cell. Graphs show the distribution of sequence variants by relative mutation rate between three experimental replicates of NA-treated and saline-treated cells sequenced with PacBio single-molecule long reads.
DNAs were extracted from three independent NA treatments of the HD primary fibroblast cell line GM09197 and from three independent untreated control cells. HPRT1 exons 2 and 3 were amplified using the high fidelity Platinum Taq DNA Polymerase (Invitrogen, Cat #11304) and the primers shown in Table 1. Amplification products were analyzed using single molecule, real-time (SMRT) sequencing on the PacBio RSII instrument (see FIG. 13A).
Specifically, a ˜2.8 kb PCR product spanning exons two and three of HPRT1 was sequenced for three replicates of HD patient-derived cells in both NA- and saline-treated colonies on a Pacific Biosciences (PacBio) RSII with P6-C4v2 chemistry, 360 minute movies, and one SMRT cell per replicate/treatment combination. Individual molecules from the original cell colony were represented by single long reads from the corresponding SMRT cell. PacBio's SMRTbell construct allows a single molecule to be sequenced one or more times in a single long read based on the number of “passes” the sequencing polymerase makes around the SMRTbell insert. An average of 99,023 distinct reads were sequenced per SMRT cell. The resulting long reads contained an average of ˜7 passes through the insert sequence. The average median insert length per SMRT cell was 2,873 bp. […] Based on these filters, an average of 1,343 consensus sequences per replicate/treatment pair were produced with a range of up to 2,402 sequences. […] To estimate the mutation rate for each replicate/treatment combination, the number of times a specific variant occurred was calculated between high-quality PacBio consensus reads at a specific position in the human reference (GRCh38) divided by the total number of high-quality reads aligned across each position. For each replicate, the relative mutation rate was calculated between NA- and saline-treated cells as the mutation rate for NA-treated cells minus the rate for saline-treated cells and identified excess mutation rates based on an absolute relative rate >0.5%. […]

naphthyridine-azaquinolone
distinct sites with extreme relative mutation rates, number (50 μM NA, across 2,897 positions, control 84): 113 | distinct sites with extreme relative mutation rates, percent (50 μM NA, control 2.9%): 3.9% | variants with extreme mutation rates (absolute relative rate >0.5%), number (50 μM NA, of the 15,277 variants across three replicates, saline 101): 149 | variants with extreme mutation rates, percent (50 μM NA, saline 0.7%): 1.0% | mutation rates NA- versus saline-treated (p=0.1083, two-sample Kolmogorov-Smirnov test): not significantly different
